The values that follow come from patent publication US20260008787A1, “FUSED RING KRAS INHIBITORS FOR TREATING DISEASE” (BLOSSOMHILL THERAPEUTICS, INC., priority 2022, published 2026).

Common to all, as to assay type: cell-based
In one experiment the test system is SW620 (KRAS G12V). Nature of the experiment: Cell proliferation assay (CellTiter-Glo, 72 hours), SW620. Conditions: Homo sapiens, SW-620, 72 h, 384-well, CellTiter-Glo 2.0. Here is the method:
(§1) Two thousand KRAS mutant cells per well were seeded in 384-well white plate and then treated with indicated compounds for 72 hours at 37° C. and 5% CO2. Cell proliferation was measured using CellTiter-Glo 2.0 luciferase-based ATP detection assay (Promega, Madison, WI) following the manufacturer's protocol. IC50 values were determined using Prism software (GraphPad Software, San Diego, CA).
Background: ATP-based viability assays read luminescence as a measure of living cells.

The next experiment has as its system AGS (G12D). In words: Cell proliferation assay (CellTiter-Glo, 72 hours), AGS. Conditions: 72 h, 384-well, CellTiter-Glo 2.0. The method, then: as §1
The next experiment relates to GP2D (KRAS G12D). In words: Cell proliferation assay (CellTiter-Glo, 72 hours), GP2D. Conditions: GP2d, 72 h, 384-well, CellTiter-Glo 2.0. Here is the method:
as §1

pIC50: −log10 of the molar value.

Consider `C#Cc1c(F)ccc2cc(O)cc(-c3nc4c5c(nc(OC[C@@]67CCCN6C[C@H](F)C7)nc5c3F)N[C@H]3CCC[C@H]3O4)c12` [Example 102, 5-ethynyl-6-fluoro-4-[(7aR,10aS)-4-fluoro-2-{[(2R,7aS)-2-fluorotetrahydro-1H-pyrrolizin-7a(5H)-yl]methoxy}-7a,8,9,10,10a,11-hexahydro-7-oxa-1,3,6,11-tetraazanaphtho[1,8-fg]azulen-5-yl]naphthalen-2-ol], for which the negative logarithm of the IC50 (pIC50) in the experiment with SW620 (KRAS G12V), with AGS (G12D) and with GP2D (KRAS G12D) was less than 5.52 throughout.
Turning to `CCc1c(F)ccc2cc(O)cc(-c3nc4c5c(nc(OC[C@@]67CCCN6C[C@H](F)C7)nc5c3F)N[C@@H](CO)CO4)c12` [Example 124, 5-ethyl-6-fluoro-4-[(9S)-4-fluoro-2-{[(2R,7aS)-2-fluorotetrahydro-1H-pyrrolizin-7a(5H)-yl]methoxy}-9-(hydroxymethyl)-9,10-dihydro-8H-7-oxa-1,3,6,10-tetraazacyclohepta[1,2,3-de]naphthalen-5-yl]naphthalen-2-ol], the pIC50 in the experiment with SW620 (KRAS G12V) is 5.48; in the experiment with AGS (G12D) it was 5.48; in the experiment with GP2D (KRAS G12D) it was 5.76.
As for `CCc1c(F)ccc2cc(O)cc(-c3nc4c5c(nc(OC[C@@]67CCCN6C[C@H](F)C7)nc5c3F)N(C)[C@H](CO)CO4)c12` [Example 92, 5-ethyl-6-fluoro-4-[(9R)-4-fluoro-2-{[(2R,7aS)-2-fluorotetrahydro-1H-pyrrolizin-7a(5H)-yl]methoxy}-9-(hydroxymethyl)-10-methyl-9,10-dihydro-8H-7-oxa-1,3,6,10-tetraazacyclohepta[1,2,3-de]naphthalen-5-yl]naphthalen-2-ol], the results for the negative-log IC50 (pIC50) with SW620 (KRAS G12V), in the experiment on AGS (G12D) and with GP2D (KRAS G12D) were 6.24, 6.41 and 6.46, respectively.
The like results for `C#Cc1c(F)ccc2cc(O)cc(-c3nc4c5c(nc(OC[C@@]67CCCN6C[C@H](F)C7)nc5c3F)N[C@@H](C(C)C)CO4)c12` [Example 47, 5-ethynyl-6-fluoro-4-[(9S)-4-fluoro-2-{[(2R,7aS)-2-fluorotetrahydro-1H-pyrrolizin-7a(5H)-yl]methoxy}-9-(propan-2-yl)-9,10-dihydro-8H-7-oxa-1,3,6,10-tetraazacyclohepta[1,2,3-de]naphthalen-5-yl]naphthalen-2-ol] were, in that order, less than 5.52, 6.10 and not above 5.22.
The like results for `C#Cc1c(F)ccc2cc(O)cc(-c3nc4c5c(nc(OC[C@@]67CCCN6C[C@H](F)C7)nc5c3F)N[C@@H](CCOC)CO4)c12` [Example 48, 5-ethynyl-6-fluoro-4-[(9S)-4-fluoro-2-{[(2R,7aS)-2-fluorotetrahydro-1H-pyrrolizin-7a(5H)-yl]methoxy}-9-(2-methoxyethyl)-9,10-dihydro-8H-7-oxa-1,3,6,10-tetraazacyclohepta[1,2,3-de]naphthalen-5-yl]naphthalen-2-ol] were, in that order, less than 5.52, less than 5.52 and 5.66.
Taken in the same sequence, the figures for `C#Cc1c(F)ccc2cc(O)cc(-c3nc4c5c(nc(OC[C@@]67CCCN6C[C@H](F)C7)nc5c3F)N3CC(F)CC[C@H]3CO4)c12` (stereo partly drawn) [Example 105, 4-[(4R,7S)-4,13-difluoro-16-[[(2R,8S)-2-fluoro-1,2,3,5,6,7-hexahydropyrrolizin-8-yl]methoxy]-9-oxa-2,11,15,17-tetrazatetracyclo[8.7.1.0^2,7.0^14,18]octadeca-1 (17),10 (18),11,13,15-pentaen-12-yl]-5-ethynyl-6-fluoro-naphthalen-2-ol] were 7.06, 7.09 and 7.67.
As for `C#Cc1c(F)ccc2cc(O)cc(-c3nc4c5c(nc(OC[C@@]67CCCN6C[C@H](F)C7)nc5c3F)N3C[C@H](O)CC[C@H]3CO4)c12` [Example 29, (8aS,11R)-5-(8-ethynyl-7-fluoro-3-hydroxynaphthalen-1-yl)-4-fluoro-2-{[(2R,7aS)-2-fluorotetrahydro-1H-pyrrolizin-7a(5H)-yl]methoxy}-8,8a,9,10,11,12-hexahydro-7-oxa-1,3,6,12a-tetraazabenzo[4,5]cyclohepta[1,2,3-de]naphthalen-11-ol], the negative logarithm of the IC50 (pIC50) with SW620 (KRAS G12V) was less than 5.52; in the experiment on AGS (G12D), 6.12; in the experiment with GP2D (KRAS G12D), 6.44.
`C#Cc1c(F)ccc2cc(O)cc(-c3nc4c5c(nc(OC[C@@]67CCCN6C[C@H](F)C7)nc5c3F)N3C[C@@](C)(O)CC[C@H]3CO4)c12` [Example 120, (8aS,11S)-5-(8-ethynyl-7-fluoro-3-hydroxynaphthalen-1-yl)-4-fluoro-2-{[(2R,7aS)-2-fluorotetrahydro-1H-pyrrolizin-7a(5H)-yl]methoxy}-11-methyl-8,8a,9,10,11,12-hexahydro-7-oxa-1,3,6,12a-tetraazabenzo[4,5]cyclohepta[1,2,3-de]naphthalen-11-ol]: the negative logarithm of the IC50 (pIC50) with SW620 (KRAS G12V), in the experiment on AGS (G12D) and in the experiment with GP2D (KRAS G12D) was less than 5.52 in each case.
`C#Cc1c(F)ccc2cc(O)cc(-c3nc4c5c(nc(OC[C@@]67CCCN6C[C@H](F)C7)nc5c3F)N(CC(F)(F)F)[C@@H](C)CO4)c12` [Example 133, 5-ethynyl-6-fluoro-4-((S)-4-fluoro-2-(((2R,7aS)-2-fluorotetrahydro-1H-pyrrolizin-7a(5H)-yl)methoxy)-9-methyl-10-(2,2,2-trifluoroethyl)-9,10-dihydro-8H-7-oxa-1,3,6,10-tetraazacyclohepta[de]naphthalen-5-yl)naphthalen-2-ol]: the negative-log IC50 (pIC50) is 7.59 in the experiment on SW620 (KRAS G12V), 7.30 in the experiment with AGS (G12D) and 7.67 in the experiment on GP2D (KRAS G12D).
Taken in the same sequence, the figures for `CCc1c(F)ccc2cc(O)cc(-c3nc4c5c(nc(OC[C@@]67CCCN6C[C@H](F)C7)nc5c3F)N(C)[C@@H](CO)CO4)c12` [Example 28, 5-ethyl-6-fluoro-4-[(9S)-4-fluoro-2-{[(2R,7aS)-2-fluorotetrahydro-1H-pyrrolizin-7a(5H)-yl]methoxy}-9-(hydroxymethyl)-10-methyl-9,10-dihydro-8H-7-oxa-1,3,6,10-tetraazacyclohepta[1,2,3-de]naphthalen-5-yl]naphthalen-2-ol] were less than 5.52, less than 5.52 and less than 5.52.
For the compound `C#Cc1c(F)ccc2cc(O)cc(-c3nc4c5c(nc(OC[C@@]67CCCN6C[C@H](F)C7)nc5c3F)N[C@@H](CC)CO4)c12` [Example 90, 4-[(9S)-9-ethyl-4-fluoro-2-{[(2R,7aS)-2-fluorotetrahydro-1H-pyrrolizin-7a(5H)-yl]methoxy}-9,10-dihydro-8H-7-oxa-1,3,6,10-tetraazacyclohepta[1,2,3-de]naphthalen-5-yl]-5-ethynyl-6-fluoronaphthalen-2-ol], the negative logarithm of the IC50 (pIC50) in the experiment with SW620 (KRAS G12V) was 5.71; in the experiment on AGS (G12D) it was 6.12; in the experiment on GP2D (KRAS G12D), 6.72.
Taken in the same sequence, the figures for `C#Cc1c(F)ccc2cc(O)cc(-c3nc4c5c(nc(OC[C@@]67CCCN6C[C@H](F)C7)nc5c3F)N3C[C@@H](O)CC[C@H]3CO4)c12` [Example 86, (8aS,11S)-5-(8-ethynyl-7-fluoro-3-hydroxynaphthalen-1-yl)-4-fluoro-2-{[(2R,7aS)-2-fluorotetrahydro-1H-pyrrolizin-7a(5H)-yl]methoxy}-8,8a,9,10,11,12-hexahydro-7-oxa-1,3,6,12a-tetraazabenzo[4,5]cyclohepta[1,2,3-de]naphthalen-11-7ol] were 6.98, 7.55 and 8.04.

As a reminder, the pIC50 is the IC50 on a negative log10 scale, so that one unit is a factor of ten.
